Tests used:
[1] = target: G protein-coupled receptor kinase 5 (Homo sapiens) (UniProt P34947); assay: Residual activity of human GRK5 using casein as substrate at 1 uM in presence of 32P-ATP by Hotspot assay relative to control
[2] = target: T1, Ephrin type-A receptor 1 (Homo sapiens) (UniProt P21709); assay: Residual activity of human EPHA1 using poly[Glu:Tyr] (4:1) as substrate at 1 uM in presence of 32P-ATP by Hotspot assay relative to control
T1 sequence (whole entry): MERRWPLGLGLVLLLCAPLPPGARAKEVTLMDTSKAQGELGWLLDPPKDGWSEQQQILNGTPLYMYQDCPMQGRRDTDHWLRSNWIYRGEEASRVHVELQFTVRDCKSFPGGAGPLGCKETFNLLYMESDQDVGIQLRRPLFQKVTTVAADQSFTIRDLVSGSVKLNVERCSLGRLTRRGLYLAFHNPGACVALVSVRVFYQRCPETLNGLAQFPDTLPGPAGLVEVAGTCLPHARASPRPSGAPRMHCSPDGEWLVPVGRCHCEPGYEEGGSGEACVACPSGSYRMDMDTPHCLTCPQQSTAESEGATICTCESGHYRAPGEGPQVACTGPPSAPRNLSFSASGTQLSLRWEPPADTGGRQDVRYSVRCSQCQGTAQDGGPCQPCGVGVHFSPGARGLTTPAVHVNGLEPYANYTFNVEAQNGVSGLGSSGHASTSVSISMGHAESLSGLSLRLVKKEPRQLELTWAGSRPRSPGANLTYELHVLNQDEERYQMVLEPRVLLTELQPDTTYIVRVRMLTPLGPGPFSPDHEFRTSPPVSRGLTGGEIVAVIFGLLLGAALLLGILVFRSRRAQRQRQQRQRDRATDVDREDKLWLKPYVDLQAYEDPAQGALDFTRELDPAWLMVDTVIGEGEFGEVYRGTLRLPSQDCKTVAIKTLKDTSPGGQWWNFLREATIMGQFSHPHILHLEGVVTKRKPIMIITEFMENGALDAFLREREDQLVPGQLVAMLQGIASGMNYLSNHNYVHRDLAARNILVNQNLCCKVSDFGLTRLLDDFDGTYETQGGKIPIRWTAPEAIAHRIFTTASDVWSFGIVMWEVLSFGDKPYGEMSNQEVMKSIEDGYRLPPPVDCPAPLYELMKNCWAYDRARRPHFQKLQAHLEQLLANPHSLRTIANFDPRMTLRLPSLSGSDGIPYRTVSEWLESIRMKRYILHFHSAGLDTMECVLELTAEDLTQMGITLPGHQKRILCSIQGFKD

[3] = target: G protein-coupled receptor kinase 6 (Homo sapiens) (UniProt P43250); assay: Inhibition of human GRK6 using casein as substrate at 1 uM in presence of 32P-ATP by Hotspot assay relative to control; values are per cent of control
Chain of G protein-coupled receptor kinase 6 (Homo sapiens) (P43250 whole entry, looked up): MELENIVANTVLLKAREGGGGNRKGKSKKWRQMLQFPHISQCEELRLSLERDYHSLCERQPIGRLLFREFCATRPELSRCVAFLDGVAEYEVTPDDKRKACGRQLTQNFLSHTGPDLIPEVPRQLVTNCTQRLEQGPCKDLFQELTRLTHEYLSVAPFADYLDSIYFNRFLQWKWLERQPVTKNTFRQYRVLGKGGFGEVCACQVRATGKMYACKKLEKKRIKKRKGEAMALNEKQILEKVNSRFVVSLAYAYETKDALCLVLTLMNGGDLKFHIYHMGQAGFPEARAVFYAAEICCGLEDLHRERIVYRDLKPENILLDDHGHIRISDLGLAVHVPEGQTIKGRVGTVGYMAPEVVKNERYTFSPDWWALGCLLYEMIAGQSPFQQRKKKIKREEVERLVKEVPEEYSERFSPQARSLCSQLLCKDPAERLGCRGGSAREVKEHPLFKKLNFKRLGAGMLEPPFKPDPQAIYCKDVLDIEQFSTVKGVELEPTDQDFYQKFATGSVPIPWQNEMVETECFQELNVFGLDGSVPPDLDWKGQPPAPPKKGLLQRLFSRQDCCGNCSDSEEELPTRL

[4] = target: T2, Testis-specific serine/threonine-protein kinase 1 (Homo sapiens) (UniProt Q9BXA7); assay: Residual activity of human STK22D/TSSK1 using KKKVSRSGLYRSPSMPENLNRPR as substrate at 1 uM in presence of 32P-ATP by Hotspot assay relative to control
T2 sequence (whole entry): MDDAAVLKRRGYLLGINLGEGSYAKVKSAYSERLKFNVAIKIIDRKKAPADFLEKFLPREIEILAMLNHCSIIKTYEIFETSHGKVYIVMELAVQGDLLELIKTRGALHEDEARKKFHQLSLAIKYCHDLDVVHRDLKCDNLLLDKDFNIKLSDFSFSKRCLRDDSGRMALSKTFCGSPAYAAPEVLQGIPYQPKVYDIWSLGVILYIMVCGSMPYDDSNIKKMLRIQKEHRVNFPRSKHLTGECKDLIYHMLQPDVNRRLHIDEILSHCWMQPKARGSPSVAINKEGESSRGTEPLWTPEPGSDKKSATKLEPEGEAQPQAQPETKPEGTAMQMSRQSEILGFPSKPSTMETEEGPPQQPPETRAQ

[5] = target: MAP kinase-activated protein kinase 2 (Homo sapiens) (UniProt P49137); assay: Inhibition of human MAPKAPK2 using KKLNRTLSVA as substrate at 1 uM in presence of 32P-ATP by Hotspot assay relative to control; values are per cent of control
Chain of MAP kinase-activated protein kinase 2 (Homo sapiens) (P49137 whole entry, looked up): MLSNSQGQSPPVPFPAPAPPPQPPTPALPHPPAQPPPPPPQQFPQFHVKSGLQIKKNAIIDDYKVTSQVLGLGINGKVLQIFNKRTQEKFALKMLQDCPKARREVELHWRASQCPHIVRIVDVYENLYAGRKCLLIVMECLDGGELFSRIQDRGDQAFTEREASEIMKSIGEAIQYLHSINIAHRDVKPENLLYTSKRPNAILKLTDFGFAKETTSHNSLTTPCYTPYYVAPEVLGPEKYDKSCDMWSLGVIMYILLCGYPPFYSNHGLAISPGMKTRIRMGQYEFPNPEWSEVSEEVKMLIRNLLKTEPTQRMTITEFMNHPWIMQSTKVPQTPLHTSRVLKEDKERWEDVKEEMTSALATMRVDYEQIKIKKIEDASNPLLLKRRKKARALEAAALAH

[6] = target: Proto-oncogene tyrosine-protein kinase ROS (Homo sapiens) (UniProt P08922); assay: Inhibition of human ROS/ROS1 using KKKSPGEYVNIEFG as substrate at 1 uM in presence of 32P-ATP by Hotspot assay relative to control; values are per cent of control
[7] = target: T3, Tyrosine-protein kinase ITK/TSK (Homo sapiens) (UniProt Q08881); assay: Inhibition of human ITK using myelin basic protein as substrate at 1 uM in presence of 32P-ATP by Hotspot assay relative to control; values are per cent of control
T3 sequence (whole entry): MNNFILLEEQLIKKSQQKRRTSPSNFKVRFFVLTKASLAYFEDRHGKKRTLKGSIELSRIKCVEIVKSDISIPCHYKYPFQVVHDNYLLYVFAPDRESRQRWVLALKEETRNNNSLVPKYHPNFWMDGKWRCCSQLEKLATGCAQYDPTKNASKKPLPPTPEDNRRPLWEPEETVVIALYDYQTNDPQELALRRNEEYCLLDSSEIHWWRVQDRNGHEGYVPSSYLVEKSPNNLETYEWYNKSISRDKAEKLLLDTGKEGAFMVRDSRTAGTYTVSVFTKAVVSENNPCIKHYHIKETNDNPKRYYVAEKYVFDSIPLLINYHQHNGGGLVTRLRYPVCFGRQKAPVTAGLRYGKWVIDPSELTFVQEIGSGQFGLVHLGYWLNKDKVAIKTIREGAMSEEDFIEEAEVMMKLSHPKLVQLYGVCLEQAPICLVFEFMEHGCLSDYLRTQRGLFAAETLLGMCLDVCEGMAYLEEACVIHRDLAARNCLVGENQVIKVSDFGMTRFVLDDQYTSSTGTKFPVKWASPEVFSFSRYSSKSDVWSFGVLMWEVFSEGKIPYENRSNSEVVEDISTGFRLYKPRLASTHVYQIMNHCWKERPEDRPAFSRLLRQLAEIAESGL

[8] = target: Angiopoietin-1 receptor (Homo sapiens) (UniProt Q02763); assay: Inhibition of human TIE2/TEK using poly[Glu:Tyr] (4:1) as substrate at 1 uM in presence of 32P-ATP by Hotspot assay relative to control; values are per cent of control
Chain of Angiopoietin-1 receptor (Homo sapiens) (Q02763 whole entry): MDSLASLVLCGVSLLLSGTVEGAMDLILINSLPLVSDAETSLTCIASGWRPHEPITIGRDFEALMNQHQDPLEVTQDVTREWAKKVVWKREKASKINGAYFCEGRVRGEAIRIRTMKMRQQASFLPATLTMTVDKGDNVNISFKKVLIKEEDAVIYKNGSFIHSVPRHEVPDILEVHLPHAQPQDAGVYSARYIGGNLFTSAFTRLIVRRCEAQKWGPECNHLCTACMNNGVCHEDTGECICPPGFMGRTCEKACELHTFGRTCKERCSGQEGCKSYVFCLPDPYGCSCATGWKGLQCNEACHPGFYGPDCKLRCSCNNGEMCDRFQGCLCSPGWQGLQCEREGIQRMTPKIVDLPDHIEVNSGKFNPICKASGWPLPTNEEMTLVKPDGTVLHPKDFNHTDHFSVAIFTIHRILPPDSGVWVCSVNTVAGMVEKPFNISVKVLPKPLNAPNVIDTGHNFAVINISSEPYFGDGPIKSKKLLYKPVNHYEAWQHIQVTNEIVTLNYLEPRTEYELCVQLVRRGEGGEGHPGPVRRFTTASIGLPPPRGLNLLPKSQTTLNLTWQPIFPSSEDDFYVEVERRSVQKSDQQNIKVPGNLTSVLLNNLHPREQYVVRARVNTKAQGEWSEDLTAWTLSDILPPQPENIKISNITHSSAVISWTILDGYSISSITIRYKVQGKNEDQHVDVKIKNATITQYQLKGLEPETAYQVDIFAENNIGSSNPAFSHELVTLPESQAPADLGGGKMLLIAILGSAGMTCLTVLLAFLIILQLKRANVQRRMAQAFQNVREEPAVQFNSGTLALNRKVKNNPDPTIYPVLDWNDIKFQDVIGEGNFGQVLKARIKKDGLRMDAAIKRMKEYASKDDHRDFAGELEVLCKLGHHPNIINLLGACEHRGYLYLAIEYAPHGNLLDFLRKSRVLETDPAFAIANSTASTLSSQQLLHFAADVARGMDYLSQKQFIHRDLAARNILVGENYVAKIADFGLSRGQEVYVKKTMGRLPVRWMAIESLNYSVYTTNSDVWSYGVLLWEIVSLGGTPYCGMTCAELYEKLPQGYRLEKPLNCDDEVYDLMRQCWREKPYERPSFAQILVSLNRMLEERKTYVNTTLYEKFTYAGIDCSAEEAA

[9] = target: Serine/threonine-protein kinase MARK2 (Homo sapiens) (UniProt Q7KZI7); assay: Inhibition of human MARK2/PAR-1Ba using KKKVSRSGLYRSPSMPENLNRPR as substrate at 1 uM in presence of 32P-ATP by Hotspot assay relative to control; values are per cent of control
Chain of Serine/threonine-protein kinase MARK2 (Homo sapiens) (Q7KZI7 whole entry): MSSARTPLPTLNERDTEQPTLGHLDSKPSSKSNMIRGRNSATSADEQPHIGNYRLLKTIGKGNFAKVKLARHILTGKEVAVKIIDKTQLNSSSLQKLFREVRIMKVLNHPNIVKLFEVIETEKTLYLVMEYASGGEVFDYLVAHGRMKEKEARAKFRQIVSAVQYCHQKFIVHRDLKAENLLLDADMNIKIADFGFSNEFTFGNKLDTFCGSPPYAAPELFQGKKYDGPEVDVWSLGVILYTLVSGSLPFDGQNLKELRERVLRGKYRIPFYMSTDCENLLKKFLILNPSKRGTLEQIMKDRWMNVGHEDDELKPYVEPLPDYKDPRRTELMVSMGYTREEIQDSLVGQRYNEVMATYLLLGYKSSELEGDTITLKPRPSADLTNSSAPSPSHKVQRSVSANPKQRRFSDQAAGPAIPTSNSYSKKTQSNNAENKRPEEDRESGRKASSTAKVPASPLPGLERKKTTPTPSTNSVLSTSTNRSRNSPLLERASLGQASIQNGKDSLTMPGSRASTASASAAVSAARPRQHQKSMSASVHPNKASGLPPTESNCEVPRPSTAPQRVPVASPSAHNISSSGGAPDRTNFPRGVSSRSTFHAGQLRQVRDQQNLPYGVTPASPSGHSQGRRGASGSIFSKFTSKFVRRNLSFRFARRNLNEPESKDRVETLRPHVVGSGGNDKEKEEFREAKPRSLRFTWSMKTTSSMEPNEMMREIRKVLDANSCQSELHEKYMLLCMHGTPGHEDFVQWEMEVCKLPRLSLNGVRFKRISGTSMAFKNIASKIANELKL

Chain of G protein-coupled receptor kinase 5 (Homo sapiens) (P34947 whole entry, looked up): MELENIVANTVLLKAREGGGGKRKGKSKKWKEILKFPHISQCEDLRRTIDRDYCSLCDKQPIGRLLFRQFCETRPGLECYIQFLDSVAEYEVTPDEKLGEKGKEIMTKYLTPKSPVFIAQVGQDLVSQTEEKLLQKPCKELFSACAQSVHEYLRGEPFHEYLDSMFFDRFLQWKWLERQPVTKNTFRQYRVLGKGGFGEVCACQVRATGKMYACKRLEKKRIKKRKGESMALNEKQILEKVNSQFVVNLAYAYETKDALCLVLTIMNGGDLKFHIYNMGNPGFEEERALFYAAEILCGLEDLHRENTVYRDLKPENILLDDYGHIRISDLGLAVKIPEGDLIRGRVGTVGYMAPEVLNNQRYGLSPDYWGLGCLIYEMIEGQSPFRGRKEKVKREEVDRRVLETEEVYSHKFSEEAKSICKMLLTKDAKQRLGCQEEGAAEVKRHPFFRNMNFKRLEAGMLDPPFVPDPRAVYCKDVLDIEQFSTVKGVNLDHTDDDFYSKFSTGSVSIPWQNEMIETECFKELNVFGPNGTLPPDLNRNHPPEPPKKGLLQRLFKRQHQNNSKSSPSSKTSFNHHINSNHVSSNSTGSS

Row | SMILES | residual activity [1] | residual activity [2] | residual activity [3] | residual activity [4] | residual activity [5] | residual activity [6] | residual activity [7] | residual activity [8] | residual activity [9]
1 | CC(C)S(=O)(=O)c1ccc2nccc(Nc3ccc4scnc4c3)c2c1 | 97.4% | 53.9% | 101% | 98.6% | 103% | 89.6% | 104% | 98.7% | 96.6%
2 | Cc1cc(-c2cnc(N)c3c(-c4ccc5scnc5c4)csc23)n(C)n1 | 96.5% | 56.5% | 91.9% | 101% | 89.1% | 78.1% | 98.3% | 94.2% | 95.2%
3 | CNC(=O)c1ccc2c(c1)ncn2-c1ccc(CC(=O)OC(C)(C)C)cc1 | 94.7% | 84.8% | 96.4% | 89.2% | 100% | 99% | 99% | 87.2% | 95.6%
